Read-outs that look alike come from different tables or passages of the source. Bridge positions count the residues as written; N and C are the ends. Square brackets hold non-standard residues; d marks the D form. Peptide text beside a SMILES is read from it. * marks the point of attachment. ξ: configuration not given here. Phe(4-NO2) = N[C@@H](Cc1ccc([N+](=O)[O-])cc1)C(=O)O; dPhe(4-NHCONH2) = NC(=O)Nc1ccc(C[C@@H](N)C(=O)O)cc1; Phe(4-NHCONH2) = NC(=O)Nc1ccc(C[C@H](N)C(=O)O)cc1; Trp(5-F) = N[C@@H](Cc1c[nH]c2ccc(F)cc12)C(=O)O; Phe(4-Cl) = N[C@@H](Cc1ccc(Cl)cc1)C(=O)O; ξDihydroorotoyl = O=C1CC(C(=O)*)NC(=O)N1; Phe(4-NH2) = Nc1ccc(C[C@H](N)C(=O)O)cc1; 2Nal = N[C@@H](Cc1ccc2ccccc2c1)C(=O)O
Experiments:
hSSTR1 = molecular target: T1, hSSTR1 (Homo sapiens, UniProt P30872); assay: Receptor autoradiography, displacement of 125I-[Leu8,D-Trp22,Tyr25]-SRIF-28 from membrane pellet sections; type: binding; conditions: Table 3; mean ± SEM when N ≧ 3; read-out: sst1 binding affinity (IC50)
T1 construct: expressed in transfected cells; host or cells: CHO-K1 or CCL39 cells
T1 sequence (P30872 whole entry): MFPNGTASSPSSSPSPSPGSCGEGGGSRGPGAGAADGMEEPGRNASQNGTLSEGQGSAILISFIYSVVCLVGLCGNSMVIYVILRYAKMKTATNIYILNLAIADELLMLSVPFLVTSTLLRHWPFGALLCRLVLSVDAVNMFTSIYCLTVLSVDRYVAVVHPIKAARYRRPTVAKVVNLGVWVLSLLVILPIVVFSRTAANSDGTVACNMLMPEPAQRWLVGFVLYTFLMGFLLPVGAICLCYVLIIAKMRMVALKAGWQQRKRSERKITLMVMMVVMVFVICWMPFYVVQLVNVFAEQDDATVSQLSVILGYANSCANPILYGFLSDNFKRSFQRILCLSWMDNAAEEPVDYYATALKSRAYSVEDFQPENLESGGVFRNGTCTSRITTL
Protocol: (§1) Generally, recombinant cells expressing the receptor are washed and homogenized to prepare a crude protein homogenate in a suitable buffer. In a typical assay, an amount of protein from the cell homogenate is placed into a small volume of an appropriate assay buffer at an appropriate pH. Candidate substances, such as potential SRIF agonists and antagonists, are added to the admixture in convenient concentrations, and the interaction between the candidate substance and the receptor polypeptide is monitored.
(§2) In vitro Bioassay: The effects of the various somatostatin analogs were tested in vitro for their ability to bind to isolated cloned receptors expressed on CHO-K1 cells and CCL39 cells. The molecular cloning of the genes encoding multiple somatostatin receptor subtypes permitted the individual expression of these receptors in mammalian cells and the characterization of their respective pharmacological profiles.
(§3) CHO-K1 cells were grown in Ham's F-12 medium, and CCL39 cells were grown in Dulbecco's modified Eagle's medium/Ham's F-12(1:1) mix, supplemented with 10% fetal bovine serum, 100 U/ml penicillin and 100 μg/ml streptomycin, in humidified air containing 5% CO2 at 37° C. Cells were washed twice with and scraped into ice-cold 0.05 M Tris-HCl (pH 7.4), collected by centrifugation, and homogenized using a rotor/stator/system in the same buffer. After centrifugation at 120 g for 5 min at 4° C., the supernatant was collected and centrifuged again at 48,000 g for 30 min at 4° C. The resulting pellet was resuspended in ice-cold Tris buffer, transferred into a microfuge tube, and centrifuged at 20,000 g for 15 min at 4° C. After withdrawal of the supernatant, the membrane pellet was stored at −80° C.
(§4) Receptor autoradiography was performed on 20 μm thick cryostat sections of the membrane pellets, mounted on microscope slides, and then stored at −20° C. […] Increasing concentrations of the unlabeled peptide were used ranging from 0.1-1000 nM. […] IC50 values were calculated after quantification of the data using a computer-assisted image processing system as known in this art.
(§5) The numbers in parentheses indicate the number of times the particular binding test was carried out.
(§6) Receptor autoradiography. Cell membrane pellets were prepared as previously described, and stored at −80° C. Receptor autoradiography was performed on 20-μm thick cryostat (Microm HM 500, Walldorf, Germany) sections of the membrane pellets, mounted on microscope slides, and then stored at −20° C. […] After a brief dip in distilled water to remove excess salts, the sections were dried quickly and exposed for 1 week to Kodak BioMax MR film. IC50 values were calculated after quantification of the data using a computer-assisted image processing system as described previously. […] (Reubi, J. C. “In vitro identification of vasoactive intestinal peptide receptors in human tumors: Implications for tumor imaging.” J. Nucl. Med. 1995, 36, 1846-1853).
(§7) To investigate their ssts binding properties, the peptides were tested for their ability to bind to cryostat sections from membrane pellets of cells expressing the five human ssts (Table 3).

hSSTR4 = molecular target: T2, hSSTR4 (Homo sapiens, UniProt P31391); assay: as above; type: binding
T2 construct: expressed in transfected cells; host or cells: CHO-K1 or CCL39 cells
T2 sequence (P31391 whole entry): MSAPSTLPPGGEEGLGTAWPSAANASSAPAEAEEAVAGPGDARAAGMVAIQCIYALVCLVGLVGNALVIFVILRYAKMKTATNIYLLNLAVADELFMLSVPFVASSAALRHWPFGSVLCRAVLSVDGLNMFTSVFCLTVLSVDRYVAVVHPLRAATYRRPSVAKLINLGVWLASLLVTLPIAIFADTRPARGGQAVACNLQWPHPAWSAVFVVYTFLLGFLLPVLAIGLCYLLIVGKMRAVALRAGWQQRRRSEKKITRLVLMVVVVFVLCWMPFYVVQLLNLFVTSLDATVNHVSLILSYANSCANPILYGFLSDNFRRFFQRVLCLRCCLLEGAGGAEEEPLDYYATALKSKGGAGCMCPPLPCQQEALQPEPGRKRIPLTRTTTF
Protocol: as §1, §2, §3, §4, §5, §6, §7

hSSTR5 = molecular target: T3, hSSTR5 (Homo sapiens, UniProt P35346); assay: as above; type: binding; conditions: Table 3; mean ± SEM when N ≧ 3; read-out: sst5 binding affinity (IC50)
T3 construct: expressed in transfected cells; host or cells: CHO-K1 or CCL39 cells
T3 sequence (P35346 whole entry): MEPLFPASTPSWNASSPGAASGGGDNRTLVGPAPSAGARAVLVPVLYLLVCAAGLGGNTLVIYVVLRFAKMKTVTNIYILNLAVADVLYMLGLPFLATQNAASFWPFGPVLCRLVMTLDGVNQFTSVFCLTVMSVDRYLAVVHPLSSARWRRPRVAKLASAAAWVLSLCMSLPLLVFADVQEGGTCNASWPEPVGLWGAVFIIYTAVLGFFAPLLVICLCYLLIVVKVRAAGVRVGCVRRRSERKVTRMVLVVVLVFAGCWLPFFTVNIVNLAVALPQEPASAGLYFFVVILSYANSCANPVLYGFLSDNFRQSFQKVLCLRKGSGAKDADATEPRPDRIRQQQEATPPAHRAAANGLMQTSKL
Protocol: as §1, §2, §3, §4, §5, §6, §7

hSSTR2 = molecular target: T4, hSSTR2 (Homo sapiens, UniProt P30874); assay: as above; type: binding; conditions: Table 3, mean ± SEM when N ≧ 3
T4 construct: expressed in transfected cells; host or cells: CHO-K1 or CCL39 cells
T4 sequence (P30874 whole entry): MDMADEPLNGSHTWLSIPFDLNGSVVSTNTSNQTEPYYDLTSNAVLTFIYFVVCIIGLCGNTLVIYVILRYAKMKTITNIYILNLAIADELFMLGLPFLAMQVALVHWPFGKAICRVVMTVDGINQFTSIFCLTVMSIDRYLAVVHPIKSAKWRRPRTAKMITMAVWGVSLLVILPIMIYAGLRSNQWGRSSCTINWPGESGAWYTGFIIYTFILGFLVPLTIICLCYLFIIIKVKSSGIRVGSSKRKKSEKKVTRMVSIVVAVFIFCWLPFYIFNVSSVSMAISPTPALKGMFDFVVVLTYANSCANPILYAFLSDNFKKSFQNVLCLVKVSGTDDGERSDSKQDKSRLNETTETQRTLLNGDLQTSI
Protocol: as §1, §2, §3, §4, §5, §6, §7

hSSTR3 = molecular target: T5, hSSTR3 (Homo sapiens, UniProt P32745); assay: as above; type: binding; conditions: Table 3; mean ± SEM when N ≧ 3; read-out: sst3 binding affinity (IC50)
T5 construct: expressed in transfected cells; host or cells: CHO-K1 or CCL39 cells
T5 sequence (P32745 whole entry): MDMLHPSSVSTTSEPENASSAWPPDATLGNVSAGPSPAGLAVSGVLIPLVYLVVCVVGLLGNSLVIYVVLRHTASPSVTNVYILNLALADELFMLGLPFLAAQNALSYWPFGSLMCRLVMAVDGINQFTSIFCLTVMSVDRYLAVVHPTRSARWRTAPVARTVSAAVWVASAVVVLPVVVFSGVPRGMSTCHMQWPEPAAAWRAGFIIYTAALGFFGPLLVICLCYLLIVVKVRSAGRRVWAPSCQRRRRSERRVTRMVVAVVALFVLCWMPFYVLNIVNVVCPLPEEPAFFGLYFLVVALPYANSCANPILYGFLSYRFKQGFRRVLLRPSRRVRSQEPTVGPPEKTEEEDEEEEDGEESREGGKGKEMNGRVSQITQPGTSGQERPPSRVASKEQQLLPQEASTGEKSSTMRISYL
Protocol: as §1, §2, §3, §4, §5, §6, §7

human sst2A receptor = molecular target: T6, human sst2A receptor (Homo sapiens, UniProt P30874); assay: Immunofluorescence-based sst2 internalization assay in HEK-sst2 cells; type: cell-based; conditions: n ≧ 2
T6 construct: expressed in transfected cells; host or cells: HEK293 (HEK-sst2)
T6 sequence (P30874 whole entry): as the sequence (P30874 whole entry) above
Protocol: Immunofluorescence-based sst2 Internalization Assay. Immunofluorescence microscopy-based internalization assay for sst2 was performed with HEK-sst2 using the sst2-specific antibody R2-88 as described elsewhere herein. HEK-sst2 cells were treated either with vehicle alone, the sst2 agonist [Tyr^3]-octreotide at a concentration of 100 nM, [Tyr^3]-octreotide at a concentration of 100 nM in the presence of an excess of the SRIF analogues to be tested (100 times the concentration of [Tyr^3]-octreotide), or with the SRIF analogues to be tested alone at a concentration of 10 μM, and then processed for immunofluorescence microscopy as described previously.

[1] = Table 3, mean ± SEM when N ≧ 3, read-out: sst4 binding affinity (IC50)
[2] = read-out: sst2 binding affinity (IC50)

| SMILES | IC50 (hSSTR1) | IC50 (hSSTR4; [1]) | IC50 (hSSTR5) | IC50 (hSSTR2; [2]) | IC50 (hSSTR3) | sst2-internalization tested in vitro in HEK-sst2 cells (function) (human sst2A receptor) | IC50 (hSSTR2; sst2 binding affinity (IC50)) | IC50 (hSSTR4) |
| --- | --- | --- | --- | --- | --- | --- | --- | --- |
| C[C@@H](O)[C@@H]1NC(=O)[C@H](CCCCN)NC(=O)[C@@H](Cc2c[nH]c3ccccc23)NC(=O)[C@H](Cc2ccc(NC(N)=O)cc2)NC(=O)[C@H](NC(=O)[C@@H](N)Cc2ccc(Cl)cc2)CSSC[C@@H](C(=O)N[C@@H](CC2CCCCC2)C(N)=O)NC1=O [compound 18, H2N-Cpa-c[DCys-Aph(Cbm)-DTrp-Lys-Thr-Cys]-Cha-NH2] | > 1000 nM | > 1000 nM | 247 ± 66 nM | 4.1 ± 0.9 nM | 255 ± 79 nM | – | – | – |
| C[C@@H](O)[C@@H]1NC(=O)[C@H](CCCCN)NC(=O)[C@@H](Cc2c[nH]c3ccccc23)NC(=O)[C@H](Cc2ccc(NC(N)=O)cc2)NC(=O)[C@H](NC(=O)[C@@H](N)Cc2ccc(Cl)cc2)CSSC[C@@H](C(=O)N[C@@H](Cc2ccc(NC(N)=O)cc2)C(N)=O)NC1=O [compound 21, H2N-Cpa-c[DCys-Aph(Cbm)-DTrp-Lys-Thr-Cys]-Aph(Cbm)-NH2] | > 1000 nM | 551 ± 151 nM | 560 ± 144 nM | 15 nM | 336 ± 46 nM | – | – | – |
| C[C@@H](O)[C@@H]1NC(=O)[C@H](CCCCN)NC(=O)[C@@H](Cc2c[nH]c3ccccc23)NC(=O)[C@@H](N(C)C(=O)c2ccccc2)NC(=O)[C@H](NC(=O)[C@@H](N)Cc2ccc(Cl)cc2)CSSC[C@@H](C(=O)N[C@@H](Cc2ccc3ccccc3c2)C(N)=O)NC1=O [compound 10, H2N-Cpa-c[DCys-D-Agl(NMe.benzoyl)-DTrp-Lys-Thr-Cys]-2Nal-NH2] | > 1000 nM | – | 728 ± 272 nM | – | 102 ± 10 nM | – | 158 ± 37 nM | 116 ± 47 nM |

Continued, in another order:

| IC50 (hSSTR1) | IC50 (hSSTR4; [1]) | IC50 (hSSTR5) | IC50 (hSSTR2; [2]) | IC50 (hSSTR3) | sst2-internalization tested in vitro in HEK-sst2 cells (function) (human sst2A receptor) | SMILES | IC50 (hSSTR2; sst2 binding affinity (IC50)) | IC50 (hSSTR4) |
| --- | --- | --- | --- | --- | --- | --- | --- | --- |
| > 1000 nM | > 1000 nM | > 1000 nM | – | – | – | C[C@@H](O)[C@@H]1NC(=O)[C@H](CCCCN)NC(=O)[C@@H](Cc2ccc(NC(N)=O)cc2)NC(=O)[C@H](Cc2ccc(NC(=O)C3CC(=O)NC(=O)N3)cc2)NC(=O)[C@H](NC(=O)[C@@H](N)Cc2ccc([N+](=O)[O-])cc2)CSSC[C@@H](C(=O)N[C@@H](Cc2ccc3ccccc3c2)C(N)=O)NC1=O (stereo partly drawn) [compound 6, H2N-pNO2Phe-c[DCys-Aph(Hor)-DAph(Cbm)-Lys-Thr-Cys]-2Nal-NH2] (H-[Phe(4-NO2)][dC][Phe(4-NH2)](ξDihydroorotoyl)[dPhe(4-NHCONH2)]KTC[2Nal]-NH2; disulfide 2-7) | – | – |
| > 1000 nM | 905 ± 132 nM | 618 ± 248 nM | 23 ± 3.7 nM | 90 ± 11 nM | – | C[C@@H](O)[C@@H]1NC(=O)[C@H](CCCCN)NC(=O)[C@H](Cc2c[nH]c3ccc(F)cc23)NC(=O)[C@H](Cc2ccc(NC(N)=O)cc2)NC(=O)[C@H](NC(=O)[C@@H](N)Cc2ccc(Cl)cc2)CSSC[C@@H](C(=O)N[C@@H](Cc2ccc3ccccc3c2)C(N)=O)NC1=O [compound 26, H2N-Cpa-c[DCys-Aph(Cbm)-5F-Trp-Lys-Thr-Cys]-2Nal-NH2] (H-[Phe(4-Cl)][dC][Phe(4-NHCONH2)][Trp(5-F)]KTC[2Nal]-NH2; disulfide 2-7) | – | – |
| – | – | – | – | – | Antagonist | C[C@@H](O)[C@@H]1NC(=O)[C@H](CCCCN)NC(=O)[C@@H](Cc2c[nH]c3ccccc23)NC(=O)[C@H](Cc2ccc(NC(N)=O)cc2)NC(=O)[C@H](NC(=O)[C@H](Cc2ccc(Cl)cc2)NC(=O)CCOCCOCCOCCNC(=O)CN2CCN(CC(=O)O)CCN(CC(=O)O)CCN(CC(=O)O)CC2)CSSC[C@@H](C(=O)N[C@@H](Cc2ccc3ccccc3c2)C(N)=O)NC1=O [compound 16, DOTA-Peg-Cpa-c[DCys-Aph(Cbm)-DTrp-Lys-Thr-Cys]-2Nal-NH2] | – | – |

— patent publication US8691761B2, “Somatostatin receptor 2 antagonists” (priority 2006, dated 2014)
